{"source": "patent US20250177481A1", "about": "“SCO-spondin-derived polypeptides for enhancing synaptic transmission” (AXOLTIS PHARMA, priority 2021, published 2025)", "test_system": "basal excitatory synaptic transmission at CA3-CA1 synapses", "test": "fEPSP input-output (I/O) recordings in CA1 of mouse hippocampal slices", "format": "cell-based, C57Bl6/J mice", "conditions": "NX218 250 μg/mL; for Normalized fEPSP slope: normalized to max slope in vehicle, mean of 10 slices", "method": "Comparison of postsynaptic responses in control versus NX218 peptide conditions were assessed.\nFive (C57Bl6/J) male mice 4-5 weeks-old were obtained from Charles River, France and housed in an animal facility. Animal care was compliant with national and local Ethics committee recommendations. Ten Sagittal hippocampal brain slices (2 per mouse) were obtained using standard brain slicing methods (Knobloch et al. 2007). Mice were anesthetized with 5% isoflurane and then decapitated. Brain was dissected out of the cranium and immediately immersed in ice-cold freshly prepared artificial cerebrospinal fluid (aCSF) containing: 124 mM NaCl, 3.75 mM KCl, 2 mM MgSO4, 2 mM CaCl2, 26.5 mM NaHCO3, 1.25 mM NaH2PO4, 10 mM glucose, continuously oxygenated (95% O2, 5% CO2) (pH=7.4) for a total duration of 3-4 minutes. Acute slices (350 μm thick) were prepared using a vibratome (VT 1000S; Leica Microsystems, Bannockburn, IL). Sections were incubated in standard aCSF (124 mM NaCl, 3.75 mM KCl, 2 mM MgSO4, 2 mM CaCl2, 26.5 mM NaHCO3, 1.25 mM NaH2PO4, 10 mM glucose) at room temperature for at least 1 h before recordings.\nFor electrophysiological recordings, a single slice was placed in the recording chamber (room temperature), submerged and continuously superfused with gassed aCSF (95% O2, 5% CO2; pH=7.4) at a constant rate (2 mL min^−1) for the reminder of the experiment. Extracellular field excitatory postsynaptic potentials (fEPSPs) were recorded in the CA1 stratum radiatum using a glass micropipette filled with aCSF. fEPSPs were evoked by the electrical stimulation of Schaffer collateral-commissural pathway at 0.1 Hz (i.e., a single pulse every 10 s) with a glass stimulating electrode (borosilicate capillary glass with filament, standard wall; OD: 1.5 mm; ID: 0.86 mm; Length: 75 mm; ref: W3 30-0060 from Harvard Apparatus) placed in the stratum radiatum.\nAfter 10 minutes of stabilization, basal synaptic transmission was assessed. […] This procedure was repeated 3 times, 30 seconds interval for each session. A single session final I/O curve was obtained by plotting the averaged rationalised slopes of fEPSPs as a function of the stimulation intensity.\nThe signal was amplified with an Axopatch 200B amplifier (Molecular Devices, Union City, CA) digitized by a Digidata 1322A interface (Axon Instruments, Molecular Devices, US) and sampled at 10 kHz. Recordings were acquired using Clampex (Molecular Devices) and analyzed with Clampfit (Molecular Devices).\nAll data was normalized from the fEPSP maximum slope recorded in control condition (during vehicle bath application). […] Potential outliers were identified for exclusion using the following criteria: >3 standard deviations away from the group mean in either direction.", "note": "Positions of bridges follow the written chain, without caps; N, C: chain ends. No end group written: not given here."}
{"substance": "W-S-G-W-S-S-C-S-R-S-C-G [NX218] (WSGWSSCSRSCG; disulfide 7-11 (inferred))", "values": [{"measurement": "change of basal excitatory synaptic transmission vs control condition (whole I/O curve)", "value": "statistical increase"}, {"measurement": "Normalized fEPSP slope", "setting": "stimulation intensity 0 µA", "value": 0.09, "unit": "%"}, {"measurement": "Normalized fEPSP slope", "setting": "stimulation intensity 50 µA", "value": 30.78, "unit": "%"}, {"measurement": "Normalized fEPSP slope", "setting": "stimulation intensity 100 µA", "value": 71.26, "unit": "%"}, {"measurement": "Normalized fEPSP slope", "setting": "stimulation intensity 150 µA", "value": 110.51, "unit": "%"}, {"measurement": "Normalized fEPSP slope", "setting": "stimulation intensity 200 µA", "value": 134.44, "unit": "%"}, {"measurement": "Normalized fEPSP slope", "setting": "stimulation intensity 250 µA", "value": 149.89, "unit": "%"}, {"measurement": "Normalized fEPSP slope", "setting": "stimulation intensity 300 µA", "value": 156.80, "unit": "%"}, {"measurement": "Normalized fEPSP slope", "setting": "stimulation intensity 350 µA", "value": 160.72, "unit": "%"}, {"measurement": "Normalized fEPSP slope", "setting": "stimulation intensity 400 µA", "value": 164.01, "unit": "%"}, {"measurement": "Normalized fEPSP slope", "setting": "stimulation intensity 450 µA", "value": 164.39, "unit": "%"}, {"measurement": "Normalized fEPSP slope", "setting": "stimulation intensity 500 µA", "value": 166.29, "unit": "%"}, {"measurement": "Normalized fEPSP slope", "setting": "stimulation intensity 550 µA", "value": 167.00, "unit": "%"}, {"measurement": "Normalized fEPSP slope", "setting": "stimulation intensity 600 µA", "value": 167.37, "unit": "%"}, {"measurement": "Normalized fEPSP slope", "setting": "stimulation intensity 650 µA", "value": 168.66, "unit": "%"}, {"measurement": "Normalized fEPSP slope", "setting": "stimulation intensity 700 µA", "value": 169.65, "unit": "%"}, {"measurement": "Normalized fEPSP slope", "setting": "stimulation intensity 750 µA", "value": 169.89, "unit": "%"}, {"measurement": "Normalized fEPSP slope", "setting": "stimulation intensity 800 µA", "value": 170.46, "unit": "%"}, {"measurement": "Normalized fEPSP slope", "setting": "stimulation intensity 850 µA", "value": 171.65, "unit": "%"}]}
